A word on the ED50: it is the dose that gives a 50% effect, or the effect in half of the subjects. What is called minimal effective dose is the lowest level tested that produced the effect sought. Read a low minimal effective dose as greater potency.

The source of these data is patent US4044043A, “Derivatives of 9-oxo-13-trans-prostenoic acid esters” (American Cyanamid Company, priority 1975, dated 1977).

The test system of assay [1] is bronchospasms elicited by 5-hydroxytryptamine. As to the kind of experiment: Bronchodilator Activity (Konzett Assay) against 5-hydroxytryptamine. It counts as in vivo, guinea pigs. The conditions noted are these: Cavia porcellus; three logarithmic cumulative intravenous doses. The protocol: (§1) Bronchodilator activity was determined in guinea pigs against bronchospasms elicited by intravenous injections of 5-hydroxytryptamine, histamine or acetylcholine by the Konzett procedure. [See J. Lulling, P. Lievens, F. El Sayed and J. Prignot, Arzeneimittel-Forschung, 18, 995 (1968)]. In Table IIIC which follows bronchodilator activity for representative compounds of this invention against one or more of the three spasmogenic agents is expressed as an ED50 determined from the results obtained with three logarithmic cumulative intravenous doses.

For assay [2], the system named is bronchospasms elicited by histamine. As to the kind of experiment: Bronchodilator Activity (Konzett Assay) against histamine. It counts as in vivo, guinea pigs. The conditions noted are these: Cavia porcellus; three logarithmic cumulative intravenous doses. The protocol: as §1
Assay [3] relates to bronchospasms elicited by acetylcholine. Nature of the assay: Bronchodilator Activity (Konzett Assay) against acetylcholine. In kind it is in vivo, guinea pigs. The conditions noted are these: Cavia porcellus; three logarithmic cumulative intravenous doses. How it is done: as §1
The test system of assay [4] is diastolic blood pressure. As to the kind of experiment: Prostaglandin-like hypotensive activity in anesthetized rats (minimal dose for about 10 mm. decrease in diastolic blood pressure). It counts as in vivo, Male Wistar strain rats. The conditions noted are these: Rattus norvegicus; intravenous; decrease of about 10 mm. in diastolic blood pressure. How it is done:
This procedure is a modification of the technique described by Pike et al., Prostaglandins, Nobel Symposium 2, Stockholm, June, 1966; p, 165.
Male Wistar strain rats (Royal Hart Farms) averaging approximately 250 grams in weight were fastened to rat boards in a supine position by means of canvas vests and limb ties. The femoral area was infiltrated subcutaneously with lidocaine and the iliac artery and vein exposed and cannulated. Arterial blood pressure (systolic/diastolic) was recorded using a Statham P23 Db pressure transducer-Offner dynograph system. To obtain a stable blood pressure, the animals were anesthetized before use with pentobarbital, 30 mg./kg. of body weight intravenously, and also were given hexamethonium bitartrate, 2 mg./kg. of body weight intravenously. The test compounds were prepared by ultrasonic dispersion in a saline-Tween 80 ® vehicle. A constant intravenous dose volume of 0.5 ml. was administered and test doses ranged from 0.1 to 10.0 mg./kg. of body weight. Increasing or decreasing doses were selected depending on the dose response obtained. In Table I below are set forth the minimal doses required to produce a decrease of about 10 mm. in diastolic blood pressure for typical compounds of the present invention.

In assay [5] the test system is Mycobacterium smegmatis ATCC 606. Nature of the assay: agar-dilution streak-plate antimicrobial assay. It counts as cell-based. The conditions noted are these: Mycolicibacterium smegmatis, ATCC606, read-out: Minimal inhibitory conc. (6). The protocol: The novel compounds of the present invention are also useful as antimicrobial agents. […] In this assay, the compounds to be tested are made up to contain 2.5 mg. of test compound per milliliter of solution. Observing sterile techniques, two-fold serial dilution are made of each test solution. One milliliter of each of the original solutions and of each of the serial dilutions is then added to 9 ml. of warm sterile nutrient agar capable of supporting growth of the bacterial test cultures. A second set of agar dilutions is prepared identical to the first except that the nutrient agar is designed to support the growth of the fungal test cultures. […] The test bacteria and yeast-like fungi are prepared for use by growing in broth overnight. The spores of the filamentous fungi are harvested from mature agar slant cultures and are suspended in sterile physiological saline solution. A loopful of each of the resulting live suspensions is then, still employing sterile techniques, streaked upon the surfaces of each of the agar plates and the resulting streaked plates are then incubated. After an appropriate period of time, each of the streaks on each of the plates is inspected visually and the extent, if any, of bacterial or fungal growth is noted. The minimal inhibitory concentration (expressed in micrograms per milliliter) is defined as the concentration of test compound causing complete inhibition of growth of any particular organism. In a representative operation, and merely by way of illustration, the minimal inhibitory concentration of typical compounds of the present invention against a variety of test organisms as determined in the above-described assay are set forth in Tables II and III below: […]

The subject of assay [6] is dl-PGE1-induced contraction of gerbil colon. As to the kind of experiment: Inhibition of dl-PGE1-Induced Contraction of Gerbil Colon (prostaglandin antagonist action). In kind it is cell-based, gerbils (Meriones unguiculatus). The conditions noted are these: Meriones unguiculatus, 1 min; 200 ng./ml. dl-PGE1; read-out: ID50 vs. 200 ng. of PGE1/ml. The protocol:
The compounds of this invention are also useful as antagonists of prostaglandin action and accordingly they are potentially useful as anti-inflammatory agents, and as agents for the treatment of periodontal diseases and diarrhea. Testing for prostaglandin antagonist action is carried out in the following manner. Sections of ascending colon, approximately 20 mm. long, from mature male gerbils (Meriones unguiculatus) weighing 70-80 g. were mounted in De Jalon's solution (154 mM NaCl; 5.95 mM NAHCO3; […], 5.64 mM KC and .27 mM CaCl2 in 20 ml. tissue baths) (L and K Glass Co., Lynnhurst, N.J.). The medium was continually gassed with a mixture of 95% 02 -5% CO2 and maintained at 37° C. The tissues were suspended via silk suture threads between a glass hook at the base and a model FT .03C force displacement transducer (Grass Instruments, Quincy, Massachusetts). Contractions were recorded on a Poly-Viso ® polygraph (Sanborn Co., Cambridge, Massachusetts). After mounting, tissues were allowed to stabilize 15-20 minutes during which time adjustments were made to establish and maintain a 0.5 g. resting tension on the muscle. Thereafter, test cycles of 3-5 minutes were begun and consisted of a 1 minute exposure to the potential antagonist, if called for, followed by a 1 minute exposure to the prostaglandin agonist, a 15-30 sec. washout and a recovery period of 2-2.5 minutes. […] During the washout period, the tissue was rinsed with a measured amount equalling 8 volumes of medium. Muscle relaxation was virtually complete by the end of the washout period. During preliminary tests it was noted that a final concentration of 200 ng./ml. of a racemic mixture of synthetic prostaglandin-E1 (dl-PGE1) produced maximal muscle contraction. Following stabilization, muscles were exposed 2 to 3 times to this concentration of dl-PGE1 until a consistent response was recorded. Once maximal responses were established, test cycles with potential antagonists were commenced and were followed alternately with prostaglandin-only test cycle. […] The contraction of the muscle induced by 200 ng./ml. dl-PGE1 following exposure to a given concentration of the potential antagonist was always compared to the response of the tissue to that level of dl PGE1 in the immediately preceding cycle. Using a series of potential antagonist concentrations, an approximate ID50 (concentration at which 50% inhibition was observed) was established. The compounds were also tested against a sub-maximal prostaglandin challenge (20 ng./ml. dl-PGE1) in which case activity is reported in terms of a 50% inhibition of maximum response.

The test system of assay [7] is gastric acid secretion. Nature of the assay: Inhibition of Gastric Acid Secretion (Pylorous-Ligated Rat), Shay rat procedure. The conditions noted are these: 100 mg./kg. intraduodenal, read-out: % Inhibition of Control Gastric Acid Secretion. It counts as in vivo, rats (male, CFE strain). The source says: The novel compounds of the present invention are also effective inhibitors of gastric acid secretion and of ulcer development in experimental animals, and thus are potentially valuable as agents for the control of gastric acid secretion and of gastric erosion and as anti-ulcer agents. Gastric acid secretion inhibitory action is usually measured by the Shay rat procedure ^(1,2) with some modifications as follows. 6 1. Shay et al., Gastroenterology, 5, 43 (1945). 6 2. Shay et al., Gastroenterology, 26, 906 (1954).
The rats (male, CFE strain) were starved for 48 hours (water was given ad libitum) to permit evacuation of stomach contents. On the morning of the experiment, under ether anesthesia, the abdominal region was shaved and a midline incision (1-1 1/2 inch) was made with a scalpel. With the help of a closed curved hemostat the duodenum was picked up. Upon getting the duodenum into view fingers were used to pull the stomach through the opening, the stomach was then gently manipulated with fingers to rid stomach of air and residual matter which were pushed through the pylorus. Two 5-inch sutures were drawn under the pyloric-duodenal puncture. A ligature, at the juncture, was formed with one of the threads. The second ligature was also formed but not tightened.
The test compound or the vehicle, usually 1 ml./100 g. body weight, were injected into the duodenum as close as possible to the first ligature. After injection the second ligature was tightened below the injection site to minimize leakage. The stomach was placed back through the opening into the abdominal cavity, the area of incision was washed with saline and the incision was closed with autoclips. (Ocasionally instead of an intraduodenal injection, animals were dosed by the oral or subcutaneous route. In the latter case, dosing was done thirty to sixty minutes before the operation).
The abdominal cavity was exposed by cutting with scissors and the esophagus close to the stomach was clamped off with a hemostat, the stomach was removed by cutting above the hemostat (the esophagus was cut) and between the two sutures. Extraneous tissue was removed, the stomach washed with saline and blotted on gauze. A slit was carefully made in the stomach which was held over a funnel and the contents were collected in a centrifuge tube. The stomach was further cut along the outside edge and turned inside out. Two ml. of water were used to wash the stomach contents into the respective centrifuge tube. The combined stomach contents and wash were then centrifuged out for 10 minutes in the International Size 2 Centrifuge (setting at 30). The supernatant was collected, volume measured and recorded, 2 drops of phenolphthalein indicator (1% in 95% ethanol) were added and the solution was titrated with 0.02N NaOH (or with 0.04N NaOH when large volumes of stomach contents were encountered) to pH 8.4 (because of usual coloring of the stomach contents, phenolphthalein was only used to permit visual indication that the end point was near) and the amount of acid present was calculated.
Compounds inducing inhibition of gastric acid secretion of 20% or more were considered active. In a representative operation, and merely by way of illustration, the results obtained with this assay with typical compounds of the present invention are given in Table IIIA.

≈ marks a conversion by molar mass, not a printed value.

As for `CCCCCC/C=C/[C@@H]1CC[C@@H](O)[C@H]1CCCCCCC(=O)O` (relative stereo) [9α-hydroxy-13-trans-prostenoic acid], the figures for the 50% effective dose (ED50) in assay [1], in assay [2] and in assay [3] were 0.559 mg/kg, 0.268 mg/kg and 2.53 mg/kg, respectively.

For the compound `CCCCCC/C=C/[C@@H]1CCC(=O)[C@H]1CCCCCCC(=O)Oc1cccnc1` (relative stereo) [3-pyridyl 9-oxo-13-trans-prostenoate, 3'-pyridyl 9-oxo-13-trans-prostenoate], the minimal effective dose in assay [4] lay in the range of 0.4 to 4 mg/kg. The MIC in assay [5] came to 50 µg/mL (≈ 125 µM). Moreover, in assay [6], the IC50 came out at 12 µg/mL (≈ 30 µM).

Consider `CCCCCC/C=C/[C@@H]1CCC(=NNc2ccc(C(=O)O)cc2)[C@H]1CCCCCCC(=O)O` (relative stereo) [9-Oxo-13-trans-prostenoic acid p-carboxyphenylhydrazone], for which the ED50 was 3.2 mg/kg in assay [1], 0.931 mg/kg in assay [2] and 5.55 mg/kg in assay [3].

Consider `CCCCC/C=C/[C@H]1CCC(=O)[C@@H]1CCCCCCC(=O)OCC` (relative stereo) [ethyl 9-oxo-20-nor-13-trans-prostenoate], for which the minimal effective dose in assay [4] stood at 0.6 mg/kg. Moreover, the MIC in assay [5] came out at 62 µg/mL (≈ 184 µM).

Turning to `C=C1CC[C@@H](/C=C/CCCCCC)[C@@H]1CCCCCCC(=O)O` (relative stereo) [9-methylene-13-trans-prostenoic acid, 9-Methylene-13-trans-prostenoic acid], the median effective dose (ED50) in assay [1] was 14.1 mg/kg; in assay [2], 1.45 mg/kg; in assay [3], over 10 mg/kg.

Turning to `CCOC(=O)CCCCCC[C@H]1C(=O)CC[C@@H]1/C=C/CCC(C)C` (relative stereo) [ethyl 17-methyl-9-oxo-19,10-dinor-13-trans-rpostenoate], the minimal effective dose in assay [4] worked out at 10 mg/kg. For the same compound, in assay [5], the MIC was 62 µg/mL (≈ 184 µM). Also, in assay [7], the inhibition in vivo at 100 mg/kg was 21%.

Consider `CCS(=O)(=O)CCC/C=C/[C@H]1CCC(=O)[C@@H]1CCCCCCC(=O)O` (relative stereo) [9-oxo-18-dioxythia-13-trans-prostenoic acid], for which the values for the median effective dose (ED50) in assay [1], in assay [2] and in assay [3] were over 10 mg/kg, 9.87 mg/kg and over 10 mg/kg, respectively.

`CCOC(=O)CCCCCC[C@H]1C(=O)CC[C@@H]1/C=C/CCCC(C(=O)OCC)C(=O)OCC` (relative stereo) [ethyl 20,20-dicarbethoxy-9-oxo-18,19-dinor-13-trans-prostenoate] showed a minimal effective dose in assay [4] of 8 mg/kg. In assay [5], the MIC worked out at 250 µg/mL (≈ 536 µM). Further, the inhibition in vivo at 100 mg/kg in assay [7] was found to be 38%.

`CCCCCCC=CC1CCC(O)(c2ccccc2)C1CCCCCCC(=O)O` (stereo not drawn) [9-hydroxy-9-phenyl-13-trans-prostenoic acid]: the ED50 in assay [1] was 2.44 mg/kg; in assay [2], 5.27 mg/kg; in assay [3], over 10 mg/kg.

Take `CCOC(=O)CCCCCC[C@H]1C(=O)CC[C@@H]1/C=C/CCCCCCI` (relative stereo) [ethyl 20-iodo-9-oxo-13-trans-prostenoate]: the MIC in assay [5] was found to be 62 µg/mL (≈ 130 µM). For the same compound, the inhibition in vivo at 100 mg/kg in assay [7] is 42%.

Consider `CCOC(=O)CCCCCC[C@H]1C(=O)CC[C@@H]1/C=C/CCCSCC` (relative stereo) [ethyl 9-oxo-18-thia-13-trans-prostenoate], for which the minimal effective dose in assay [4] is 2 mg/kg. Moreover, the MIC in assay [5] is 250 µg/mL (≈ 678 µM).

Regarding `CC(C)C/C=C/[C@H]1CCC(O)[C@@H]1CCCCCCC(=O)O` (stereo partly drawn) [9α/β-hydroxy-16-methyl-18,19,20-trinor-13-trans-prostenoic acid], the 50% effective dose (ED50) is over 10 mg/kg in assay [1], 3.47 mg/kg in assay [2] and over 10 mg/kg in assay [3].

Take `CCCCCC/C=C/[C@H]1CC(C)C(=O)[C@@H]1CCCCCCC(=O)O` (stereo partly drawn) [9-oxo-10-methyl-13-trans-prostenoic acid]: the 50% effective dose (ED50) in assay [1] was 1.84 mg/kg; in assay [2] it was 0.303 mg/kg; in assay [3], 73.2 mg/kg.
